From patent US7314958B2, “Phenylbenzamides” (Bayer CropScience AG, priority 2002, dated 2008)

Legend:
Format in all cases: in vivo
Botrytis cinerea = assay: Botrytis test (bean)/protective; details: protective, application rate 500 g/ha, evaluation 2 days after inoculation
Protocol: Botrytis Test (Bean)/Protective • Solvent: 49 parts by weight of N,N-dimethylformamide • Emulsifier: 1 part by weight of alkylaryl polyglycol ether To produce a suitable preparation of active compound, 1 part by weight of active compound is mixed with the stated amounts of solvent and emulsifier, and the concentrate is diluted with water to the desired concentration. To test for protective activity, young plants are sprayed with the preparation of active compound at the stated application rate. After the spray coating has dried on, 2 small pieces of agar colonized by Botrytis cinerea are placed onto each leaf. The inoculated plants are placed in a dark chamber at about 20° C. and 100% relative atmospheric humidity. 2 days after the inoculation, the size of the infected areas on the leaves is evaluated. 0% means an efficacy which corresponds to that of the control, whereas an efficacy of 100% means that no infection is observed.

Alternaria solani = assay: Alternaria test (tomato)/protective; details: protective, application rate 750 g/ha, evaluation 7 days after inoculation
[1] = test system: Erysiphe graminis f. sp. hordei; assay: Erysiphe test (barley)/protective; details: protective, application rate 750 g/ha, evaluation 7 days after inoculation

Row | SMILES | Efficacy in % (Alternaria solani) [%] | Efficacy in % [1] [%] | other results
1 | CC(C)CC(C)c1ccccc1NC(=O)c1ccccc1I (centres unmarked) [drawing 15] | – | – | Efficacy in % (Botrytis cinerea): 93%
2 | CC(C)CC(C)c1ccccc1NC(=O)c1ccccc1C(F)(F)F (centres unmarked) [drawing 16] | 100 | – | –
3 | CC(C)CC(C)c1ccccc1NC(=O)c1ccccc1I (centres unmarked) [drawing 17] | 100 | – | –
4 | CC(C)CC(C)c1ccccc1NC(=O)c1ccccc1C(F)(F)F (centres unmarked) [drawing 18] | – | 95 | –
5 | CC(C)CC(C)c1ccccc1NC(=O)c1ccccc1I (centres unmarked) [drawing 19] | – | 95 | –
